Data published in patent publication US20230085307A1, “PYRIDAZINONE COMPOUND AND HERBICIDE” (NISSAN CHEMICAL CORPORATION, priority 2019, published 2023).

Experiments:
Japanese bulrush [1] = test: Test Example 2: herbicidal activity, application during weed generation under submerged conditions (Table 17, symbol B); type: in vivo, Japanese bulrush (Schoenoplectus juncoides); conditions: AAH 320 g/ha; application during weed generation, submerged conditions
Summary of the method: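 In this pot test, flooded alluvial soil (water depth 4 cm) holds all three species sown as a mixture. Once seedlings have one to two leaves, the compound's emulsion, thinned with water to the intended dose, is poured on the water; grading follows after three weeks on the earlier criteria.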

velvetleaf [2] = test: Test Example 5: herbicidal effect by foliage application, plastic box (Table 20, symbol M); type: in vivo, velvetleaf (Abutilon theophrasti); conditions: foliage application; for M: velvetleaf, herbicidal effect: AAH 320 g/ha, three weeks after application
Summary of the method: (§1)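 Foliar spray test: emulsion formulation diluted in water to a set application rate, sprayed onto 14-day-old plants raised in diluvial soil at 25° C to 30° C under glass. Both herbicidal effect and crop effect rated visually three weeks later.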

velvetleaf [3] = test: Test Example 4: herbicidal effect by soil treatment (Table 19, symbol M); type: in vivo, velvetleaf (Abutilon theophrasti)
Summary of the method: (§2)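 Herbicidal effect was rated 3 weeks after treatment, using the scoring criteria of an earlier test. The compound, formulated as an emulsion and diluted in water to a set herbicide amount, had been sprayed uniformly on soil over freshly sown seeds. Growth took place in a greenhouse at 25° C. to 30° C.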

late watergrass = test: Test Example 1: herbicidal activity, application before weed generation under submerged conditions (Table 16, symbol A); type: in vivo, late watergrass (Echinochloa oryzicola); conditions: 320 g/ha applied herbicide
Summary of the method: (§3)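 Alluvial soil was flooded to 4 cm depth, weed seeds were sown mixed and 2.5-leaf rice seedlings were transplanted. On sowing day, the compound's emulsion, diluted in water to a set dose, was applied to the water surface. Plants grew at 25–30 °C and were scored 0–5 after three weeks.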

Japanese bulrush [4] = test: Test Example 1: herbicidal activity, application before weed generation under submerged conditions (Table 16, symbol B); type: in vivo, Japanese bulrush (Schoenoplectus juncoides); conditions: 320 g/ha applied herbicide
Summary of the method: as §3

Chinese sprangletop = test: Test Example 3: herbicidal effect by foliage application, Wagner pot (Table 18, symbol D); type: in vivo, chinese sprangletop (Leptochloa chinensis); conditions: 320 g/ha
Summary of the method: (§4)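 Plants were sown in alluvial soil held under 0.1–0.5 cm standing water and grown 14 days in a greenhouse at 25–30 °C. An emulsifiable formulation, water-diluted to the set dose, was then sprayed onto the foliage, and effects were scored three weeks later using previously defined criteria.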

lambsquarters [5] = test: Test Example 4: herbicidal effect by soil treatment (Table 19, symbol O); type: in vivo, lambsquarters (Chenopodium album)
Summary of the method: as §2

lambsquarters [6] = test: Test Example 5: herbicidal effect by foliage application, plastic box (Table 20, symbol O); type: in vivo, lambsquarters (Chenopodium album); conditions: foliage application; for O: lambsquarters, herbicidal effect: AAH 320 g/ha, three weeks after application
Summary of the method: as §1

southern crabgrass [7] = test: Test Example 4: herbicidal effect by soil treatment (Table 19, symbol F); type: in vivo, southern crabgrass (Digitaria ciliaris)
Summary of the method: as §2

barnyard grass [8] = test: Test Example 3: herbicidal effect by foliage application, Wagner pot (Table 18, symbol H); type: in vivo, barnyard grass (Echinochloa crus-galli); conditions: 320 g/ha
Summary of the method: as §4

Italian ryegrass = test: Test Example 5: herbicidal effect by foliage application, plastic box (Table 20, symbol K); type: in vivo, Italian ryegrass (Lolium multiflorum); conditions: foliage application; for K: Italian ryegrass, herbicidal effect: AAH 320 g/ha, three weeks after application
Summary of the method: as §1

barnyard grass [9] = test: Test Example 4: herbicidal effect by soil treatment (Table 19, symbol H); type: in vivo, barnyard grass (Echinochloa crus-galli)
Summary of the method: as §2

windgrass [10] = test: Test Example 5: herbicidal effect by foliage application, plastic box (Table 20, symbol L); type: in vivo, windgrass (Apera spica-venti); conditions: foliage application; for L: windgrass, herbicidal effect: AAH 320 g/ha, three weeks after application
Summary of the method: as §1

persian speedwell = test: Test Example 5: herbicidal effect by foliage application, plastic box (Table 20, symbol R); type: in vivo, Persian speedwell (Veronica persica); conditions: foliage application; for R: persian speedwell, herbicidal effect: AAH 320 g/ha, three weeks after application
Summary of the method: as §1

southern crabgrass [11] = test: Test Example 5: herbicidal effect by foliage application, plastic box (Table 20, symbol F); type: in vivo, southern crabgrass (Digitaria ciliaris); conditions: foliage application; for F: southern crabgrass, herbicidal effect: AAH 320 g/ha, three weeks after application
Summary of the method: as §1

wild oat = test: Test Example 5: herbicidal effect by foliage application, plastic box (Table 20, symbol I); type: in vivo, wild oat (Avena fatua); conditions: foliage application; for I: wild oat, herbicidal effect: AAH 320 g/ha, three weeks after application
Summary of the method: as §1

windgrass [12] = test: Test Example 4: herbicidal effect by soil treatment (Table 19, symbol L); type: in vivo, windgrass (Apera spica-venti); conditions: 320 g/ha
Summary of the method: as §2

[13] = amount of applied herbicide 320 g/ha
[14] = 320 g/ha, 3 weeks after application
[15] = 320 g/ha, evaluated three weeks after application

Structure (SMILES)	herbicidal effect rating, B: Japanese bulrush (Japanese bulrush [1])	M: velvetleaf, herbicidal effect (velvetleaf [2])	Herbicidal effect on A: late watergrass (grade 0-5) (late watergrass)	Herbicidal effect on B: Japanese bulrush (grade 0-5) (Japanese bulrush [4])	herbicidal effect on D (Chinese sprangletop), rating 0-5 (Chinese sprangletop)	O: lambsquarters, herbicidal effect (lambsquarters [6])	herbicidal effect on H (barnyard grass), rating 0-5 (barnyard grass [8])	K: Italian ryegrass, herbicidal effect (Italian ryegrass)	L: windgrass, herbicidal effect (windgrass [10])	R: persian speedwell, herbicidal effect (persian speedwell)	F: southern crabgrass, herbicidal effect (southern crabgrass [11])	I: wild oat, herbicidal effect (wild oat)	herbicidal effect rating, L: windgrass (windgrass [12])	herbicidal effect rating, M: velvetleaf (velvetleaf [3]; 320 g/ha)	herbicidal effect rating, O: lambsquarters (lambsquarters [5]; 320 g/ha)	herbicidal effect rating, F: southern crabgrass (southern crabgrass [7]; 320 g/ha)	herbicidal effect rating, H: barnyard grass (barnyard grass [9]; 320 g/ha)	also measured
C=CCOc1ccccc1-c1sc2ccccc2c1-c1c(O)c(C)nn(C)c1=O [1-110]	2 (Herbicidal rate of 20% or more and less than 40%)	2 (Herbicidal rate of 20% or more and less than 40%)	3 (Herbicidal rate of 40% or more and less than 70%)	0 (Herbicidal rate of 5% or less (almost no effect))	3 (Herbicidal rate of 40% or more and less than 70%)	0 (Herbicidal rate of 5% or less (almost no effect))	4 (Herbicidal rate of 70% or more and less than 90%)	0 (Herbicidal rate of 5% or less (almost no effect))	3 (Herbicidal rate of 40% or more and less than 70%)	5 (Herbicidal rate of 90% or more (almost completely withered))	4 (Herbicidal rate of 70% or more and less than 90%)	3 (Herbicidal rate of 40% or more and less than 70%)						herbicidal effect rating, M: velvetleaf (velvetleaf [3]; [13]): 1 (Herbicidal rate of 5% or more and less than 20%); herbicidal effect rating, O: lambsquarters (lambsquarters [5]; [13]): 0 (Herbicidal rate of 5% or less (almost no effect)); herbicidal effect rating, F: southern crabgrass (southern crabgrass [7]; [13]): 3 (Herbicidal rate of 40% or more and less than 70%); herbicidal effect rating, H: barnyard grass (barnyard grass [9]; [13]): 3 (Herbicidal rate of 40% or more and less than 70%)
Cc1nn(C)c(=O)c(-c2c(-c3ccc(OCC(F)(F)F)cc3)sc3ccccc23)c1O [1-140]	3 (Herbicidal rate of 40% or more and less than 70%)	4 (Herbicidal rate of 70% or more and less than 90%)	3 (Herbicidal rate of 40% or more and less than 70%)	2 (Herbicidal rate of 20% or more and less than 40%)	3 (Herbicidal rate of 40% or more and less than 70%)	5 (Herbicidal rate of 90% or more (almost completely withered))	5 (Herbicidal rate of 90% or more (almost completely withered))	5 (Herbicidal rate of 90% or more (almost completely withered))	3 (Herbicidal rate of 40% or more and less than 70%)	5 (Herbicidal rate of 90% or more (almost completely withered))	4 (Herbicidal rate of 70% or more and less than 90%)	0 (Herbicidal rate of 5% or less (almost no effect))						M: velvetleaf, herbicidal effect rating (velvetleaf [3]; AAH 320 g/ha): 5 (Herbicidal rate of 90% or more (almost completely withered)); O: lambsquarters, herbicidal effect rating (lambsquarters [5]; AAH 320 g/ha): 5 (Herbicidal rate of 90% or more (almost completely withered)); F: southern crabgrass, herbicidal effect rating (southern crabgrass [7]; AAH 320 g/ha): 5 (Herbicidal rate of 90% or more (almost completely withered)); H: barnyard grass, herbicidal effect rating (barnyard grass [9]; AAH 320 g/ha): 5 (Herbicidal rate of 90% or more (almost completely withered))
Cc1nn(C)c(=O)c(-c2c(-c3ccc(Cl)cc3)sc3ccc(F)cc23)c1O [Compound No. 2-010, 4-(2-(4-chlorophenyl)-5-fluorobenzo[b]thiophen-3-yl)-5-hydroxy-2,6-dimethylpyridazin-3(2H)-one]			3 (Herbicidal rate of 40% or more and less than 70%)	3 (Herbicidal rate of 40% or more and less than 70%)	4 (Herbicidal rate of 70% or more and less than 90%)		5 (Herbicidal rate of 90% or more (almost completely withered))						0 (Herbicidal rate of 5% or less (almost no effect))	5 (Herbicidal rate of 90% or more (almost completely withered))	5 (Herbicidal rate of 90% or more (almost completely withered))	5 (Herbicidal rate of 90% or more (almost completely withered))	5 (Herbicidal rate of 90% or more (almost completely withered))	effect on velvetleaf (M) (velvetleaf [2]; [14]): 5 (Herbicidal rate of 90% or more (almost completely withered)); effect on lambsquarters (O) (lambsquarters [6]; [14]): 5 (Herbicidal rate of 90% or more (almost completely withered)); effect on Italian ryegrass (K) (Italian ryegrass; [14]): 5 (Herbicidal rate of 90% or more (almost completely withered)); effect on windgrass (L) (windgrass [10]; [14]): 5 (Herbicidal rate of 90% or more (almost completely withered)); effect on persian speedwell (R) (persian speedwell; [14]): 5 (Herbicidal rate of 90% or more (almost completely withered)); effect on southern crabgrass (F) (southern crabgrass [11]; [14]): 5 (Herbicidal rate of 90% or more (almost completely withered)); effect on wild oat (I) (wild oat; [14]): 4 (Herbicidal rate of 70% or more and less than 90%)
COc1cc(F)ccc1-c1sc2ccc(Cl)cc2c1-c1c(O)c(C)nn(C)c1=O [Compound No. 2-095, 4-(5-chloro-2-(4-fluoro-2-methoxyphenyl)benzo[b]thiophen-3-yl)-5-hydroxy-2,6-dimethylpyridazin-3(2H)-one]			2 (Herbicidal rate of 20% or more and less than 40%)	0 (Herbicidal rate of 5% or less (almost no effect))	4 (Herbicidal rate of 70% or more and less than 90%)		5 (Herbicidal rate of 90% or more (almost completely withered))						3 (Herbicidal rate of 40% or more and less than 70%)	0 (Herbicidal rate of 5% or less (almost no effect))	5 (Herbicidal rate of 90% or more (almost completely withered))	3 (Herbicidal rate of 40% or more and less than 70%)	4 (Herbicidal rate of 70% or more and less than 90%)	herbicidal effect on M: velvetleaf (velvetleaf [2]; [15]): 5 (Herbicidal rate of 90% or more (almost completely withered)); herbicidal effect on O: lambsquarters (lambsquarters [6]; [15]): 5 (Herbicidal rate of 90% or more (almost completely withered)); herbicidal effect on K: Italian ryegrass (Italian ryegrass; [15]): 3 (Herbicidal rate of 40% or more and less than 70%); herbicidal effect on L: windgrass (windgrass [10]; [15]): 5 (Herbicidal rate of 90% or more (almost completely withered)); herbicidal effect on R: persian speedwell (persian speedwell; [15]): 5 (Herbicidal rate of 90% or more (almost completely withered)); herbicidal effect on F: southern crabgrass (southern crabgrass [11]; [15]): 4 (Herbicidal rate of 70% or more and less than 90%); herbicidal effect on I: wild oat (wild oat; [15]): 4 (Herbicidal rate of 70% or more and less than 90%)
